Test results taken from paper PMC8294059, “Identification and Immune Assessment of T Cell Epitopes in Five Plasmodium falciparum Blood Stage Antigens to Facilitate Vaccine Candidate Selection and Optimization” (Frontiers in Immunology, 2021).
Where a SMILES comes first, the peptide text is derived from it.

Tests used:
Assay in all cases: biochemical
Format in all cases: binding
HLA-DRB1*0701 = HLA-DRB1*0701 (Homo sapiens, UniProt P01903+P01911, A100R/A102G/A103Q/D57E/D86V/E43K/F76Y/K127E/L162R/M171V/P40G/Q125H/Q99D/R33Q/R42Y/R54Q/S133A/S66F/T210M/V115G/Y107V/Y59L/Y89S); details: binding inhibition assay; NB = non-binder (no dose-dependent inhibition); read-out: DRB1*0701 IC50
Procedure: (§1) The binding assay conducted by EpiVax yields an indirect measure of peptide-MHC affinity as it utilizes a competition assay format per the methodology described in Steere et al. ([35]). […] Post incubation, the mixtures are moved to a 96-well plate coated with anti-HLA-DR antibody to capture HLA-peptide complexes. Time-resolved fluorescence measurement of the bound labeled reference peptide complex present in each mixture is detected with a europium-linked probe via fluorescent spectrophotometry using a SpectraMax M5 system. HLA binding affinity of each test peptide is expressed as the percent inhibition of reference peptide binding. Percent inhibition values (across the test peptide titration range) are used to calculate the half maximal inhibitory concentration (IC50) of each test peptide. For these studies, test peptides were assessed using a range of final concentrations from 100,000 nM to 100 nM. The panel of commercially-available HLA-DRB1 allele monomers used includes: *0101, *0301, *0401, *0701, *0801, *1101, *1301 and *1501. EpiVax established HLA-DRB1 binding affinity cutoffs were used to rank the IC50 values.
(§2) In vitro HLA binding assays (step 2 of workflow shown in Figure 1 ) were carried out with the synthesized peptides to verify the EpiMatrix outputs and provide a measure of accuracy for comparing in silico-predicted HLA-DRB1 allele binding to laboratory assessments of HLA-DRB1 allele binding. These assessments were conducted using a competition assay format whereby IC50 values were calculated based on the ability of the test peptide to compete with a labeled, high binding affinity reference peptide for HLA-DRB1 molecule binding. Sequences for the high affinity reference peptides and the negative control peptide, known not to bind any of the HLA-DRB1 molecules, are provided in Table S18 .

HLA-DRB1*1301 = HLA-DRB1*1301 (Homo sapiens, UniProt P01903+P01911, A100E/A169T/K41T/L162R/M171V/P40S/Q125H/Q178H/Q39Y/Q99D/R42S/S66N/T262R/W38E/Y61H); details: binding inhibition assay; NB = non-binder (no dose-dependent inhibition); read-out: DRB1*1301 IC50
Procedure: as §1, §2

HLA-DRB1*0101 = target: T1, HLA-DRB1*0101 (Homo sapiens, UniProt P01903+P01911, A100R/D57E/F55L/F60I/F76Y/I96L/L162R/M171V/P40L/Q125E/R42F/V115G/Y59C); details: binding inhibition assay; NB = non-binder (no dose-dependent inhibition); read-out: DRB1*0101 IC50
T1 construct: purchased
Procedure: as §1, §2

HLA-DRB1*1501 = target: T2, HLA-DRB1*1501 (Homo sapiens, UniProt P01903+P01911); details: binding inhibition assay; NB = non-binder (no dose-dependent inhibition); read-out: DRB1*1501 IC50
T2 construct: purchased
Procedure: as §1, §2

HLA-DRB1*0801 = HLA-DRB1*0801 (Homo sapiens, UniProt P01903+P01911, A100R/A103L/A169T/D86S/F76Y/H45Y/I96F/K41T/L162R/M171V/P40S/Q125H/Q178H/Q39Y/Q99D/R218S/R42G/S66Y/V115G/W38E); details: binding inhibition assay; NB = non-binder (no dose-dependent inhibition); read-out: DRB1*0801 IC50
Procedure: as §1, §2

HLA-DRB1*1101 = HLA-DRB1*1101 (Homo sapiens, UniProt P01903+P01911, A100R/A169T/A87E/I96F/K41T/L162R/M171V/P40S/Q125H/Q178H/Q39Y/Q99D/R42S/S66Y/T262R/V115G/W38E); details: binding inhibition assay; NB = non-binder (no dose-dependent inhibition); read-out: DRB1*1101 IC50
Procedure: as §1, §2

HLA-DRB1*0401 = target: T3, HLA-DRB1*0401 (Homo sapiens, UniProt P01903+P01911, A100K/A169T/F76Y/I96L/K127E/L162R/M171V/N62H/P40V/Q125Y/R42H/S133A/S149N/S66Y/V115G/V209L/W38E); details: binding inhibition assay; NB = non-binder (no dose-dependent inhibition); read-out: DRB1*0401 IC50
T3 construct: purchased
Procedure: as §1, §2

Sequence of HLA-DRB1*1101 (P01903 26-254 limits assumed, other chains not shown): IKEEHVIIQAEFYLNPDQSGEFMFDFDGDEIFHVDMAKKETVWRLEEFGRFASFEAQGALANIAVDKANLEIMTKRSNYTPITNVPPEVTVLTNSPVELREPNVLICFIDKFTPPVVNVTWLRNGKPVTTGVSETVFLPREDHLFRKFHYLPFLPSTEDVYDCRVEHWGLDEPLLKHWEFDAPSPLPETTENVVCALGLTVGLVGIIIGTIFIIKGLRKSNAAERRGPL

CSCC[C@H](N)C(=O)N[C@@H](CCCNC(=N)N)C(=O)N[C@@H](CCCCN)C(=O)N[C@@H](CC(C)C)C(=O)N[C@@H](Cc1ccc(O)cc1)C(=O)N[C@@H](CS)C(=O)N[C@H](C(=O)N[C@@H](CC(C)C)C(=O)N[C@@H](CC(C)C)C(=O)N[C@@H](CC(C)C)C(=O)N[C@@H](CO)C(=O)N[C@@H](C)C(=O)N[C@@H](Cc1ccccc1)C(=O)N[C@@H](CCC(=O)O)C(=O)N[C@@H](Cc1ccccc1)C(=O)N[C@H](C(=O)N[C@@H](Cc1ccc(O)cc1)C(N)=O)[C@@H](C)O)C(C)C [AMA1_001] (H-MRKLYCVLLLSAFEFTY-NH2)
IC50 (HLA-DRB1*0701): 206 nM
IC50 (HLA-DRB1*1301): 1790 nM
IC50 (HLA-DRB1*0101): 394 nM
IC50 (HLA-DRB1*1501): 751 nM
IC50 (HLA-DRB1*0801): 17300 nM
IC50 (HLA-DRB1*1101): 320 nM
IC50 (HLA-DRB1*0401): 1470 nM

CC[C@H](C)[C@H](NC(=O)[C@H](CCSC)NC(=O)[C@H](Cc1ccc(O)cc1)NC(=O)[C@@H](NC(=O)[C@H](Cc1ccccc1)NC(=O)[C@H](CCC(=O)O)NC(=O)[C@H](Cc1ccccc1)NC(=O)[C@H](C)N)[C@@H](C)O)C(=O)N[C@@H](CC(N)=O)C(=O)N[C@@H](Cc1ccccc1)C(=O)NCC(=O)N[C@@H](CCCNC(=N)N)C(=O)NCC(=O)N[C@@H](CCC(N)=O)C(=O)N[C@@H](CC(N)=O)C(=O)N[C@@H](Cc1ccc(O)cc1)C(=O)N[C@@H](Cc1c[nH]c2ccccc12)C(=O)N[C@@H](CCC(=O)O)C(N)=O [AMA1_002] (H-AFEFTYMINFGRGQNYWE-NH2)
IC50 (HLA-DRB1*0701): 113 nM
IC50 (HLA-DRB1*1301): 723 nM
IC50 (HLA-DRB1*0101): 117 nM
IC50 (HLA-DRB1*1501): 76 nM
IC50 (HLA-DRB1*0801): 239 nM
IC50 (HLA-DRB1*1101): 236 nM
IC50 (HLA-DRB1*0401): 45 nM

CC(=O)N[C@@H](Cc1ccccc1)C(=O)N[C@@H](CCC(N)=O)C(=O)N[C@@H](CC(N)=O)C(=O)N[C@@H](Cc1ccc(O)cc1)C(=O)N[C@H](C(=O)N[C@@H](Cc1ccc(O)cc1)C(=O)N[C@@H](CC(C)C)C(=O)N[C@@H](CO)C(=O)N[C@@H](CCCCN)C(=O)N[C@@H](CC(N)=O)C(=O)N[C@H](C(=O)N[C@H](C(=O)N[C@@H](CC(=O)O)C(=O)N[C@@H](CC(N)=O)C(=O)N[C@@H](Cc1c[nH]c2ccccc12)C(=O)N[C@@H](CCC(=O)O)C(N)=O)C(C)C)C(C)C)[C@@H](C)O [AMA1_004] (Ac-FQNYTYLSKNVVDNWE-NH2)
IC50 (HLA-DRB1*0701): 9480 nM
IC50 (HLA-DRB1*1301): 70000 nM
IC50 (HLA-DRB1*0101): 16 nM
IC50 (HLA-DRB1*1501): 248 nM
IC50 (HLA-DRB1*0801): 10 nM
IC50 (HLA-DRB1*1101): 567 nM
IC50 (HLA-DRB1*0401): 9690 nM

CC[C@H](C)[C@H](NC(=O)[C@@H](NC(=O)[C@H](C)NC(=O)[C@H](CC(C)C)NC(C)=O)[C@@H](C)O)C(=O)N[C@@H](CC(C)C)C(=O)N[C@@H](CCSC)C(=O)N[C@H](C(=O)N[C@@H](Cc1ccc(O)cc1)C(=O)N[C@@H](CC(C)C)C(=O)N[C@@H](Cc1ccc(O)cc1)C(=O)N[C@@H](CCCCN)C(=O)N[C@@H](CCCNC(=N)N)C(=O)N[C@@H](CCCCN)C(=O)NCC(=O)N[C@@H](CC(N)=O)C(=O)N[C@@H](C)C(=O)N[C@@H](CCC(=O)O)C(=O)N[C@@H](CCCCN)C(=O)N[C@@H](Cc1ccc(O)cc1)C(=O)N[C@@H](CC(=O)O)C(=O)N[C@@H](CCCCN)C(N)=O)C(C)C [AMA1_009] (Ac-LATILMVYLYKRKGNAEKYDK-NH2)
IC50 (HLA-DRB1*0701): 3400 nM
IC50 (HLA-DRB1*1301): 4400 nM
IC50 (HLA-DRB1*0101): 10000 nM
IC50 (HLA-DRB1*1501): 2440 nM
IC50 (HLA-DRB1*0801): 7980 nM
IC50 (HLA-DRB1*1101): 165 nM
IC50 (HLA-DRB1*0401): 11100 nM

CC[C@H](C)[C@H](NC(=O)[C@H](Cc1ccccc1)NC(=O)[C@H](CC(N)=O)NC(=O)[C@@H](NC(=O)[C@H](CC(N)=O)NC(=O)[C@H](CCCCN)NC(=O)[C@@H](NC(=O)[C@H](CC(N)=O)NC(=O)[C@H](CC(N)=O)NC(=O)[C@@H](NC(=O)[C@H](CC(N)=O)NC(=O)[C@H](CC(=O)O)NC(=O)CNC(=O)[C@@H](NC(=O)[C@H](Cc1ccc(O)cc1)NC(=O)[C@H](Cc1ccccc1)NC(=O)[C@@H](N)Cc1c[nH]cn1)C(C)C)[C@@H](C)CC)C(C)C)C(C)C)C(=O)N[C@@H](CCC(=O)O)C(N)=O [CYRPA_005] (H-HFYVGDNINNVKNVNFIE-NH2)
IC50 (HLA-DRB1*0701): 137 nM
IC50 (HLA-DRB1*1301): 633 nM
IC50 (HLA-DRB1*0101): 182 nM
IC50 (HLA-DRB1*1501): 122 nM
IC50 (HLA-DRB1*0801): 11800 nM
IC50 (HLA-DRB1*1101): 293 nM
IC50 (HLA-DRB1*0401): 78 nM

CC[C@H](C)[C@H](NC(=O)CNC(=O)[C@H](CCC(N)=O)NC(=O)[C@H](CO)NC(=O)[C@H](CO)NC(=O)[C@H](CO)NC(=O)[C@H](Cc1ccc(O)cc1)NC(=O)[C@@H](NC(=O)[C@H](Cc1ccccc1)NC(=O)[C@H](CC(C)C)NC(=O)[C@@H](NC(=O)[C@H](CCCNC(=N)N)NC(=O)[C@H](CC(N)=O)NC(=O)[C@H](CCC(=O)O)NC(=O)[C@H](CC(=O)O)NC(C)=O)[C@@H](C)O)[C@@H](C)CC)C(=O)N[C@@H](Cc1ccc(O)cc1)C(=O)N[C@@H](CC(N)=O)C(=O)N[C@H](C(=O)N[C@@H](Cc1c[nH]cn1)C(=O)N[C@H](C(N)=O)[C@@H](C)O)[C@@H](C)CC [CYRPA_008] (Ac-DENRTLFIYSSSQGIYNIHT-NH2)
IC50 (HLA-DRB1*0701): 219 nM
IC50 (HLA-DRB1*1301): 6980 nM
IC50 (HLA-DRB1*0101): 4 nM
IC50 (HLA-DRB1*1501): 50 nM
IC50 (HLA-DRB1*0801): 11500 nM
IC50 (HLA-DRB1*1101): 1130 nM
IC50 (HLA-DRB1*0401): 1050 nM

CC[C@H](C)[C@H](NC(=O)[C@H](CC(=O)O)NC(=O)[C@H](Cc1ccc(O)cc1)NC(=O)[C@H](CCC(=O)O)NC(=O)[C@H](CC(N)=O)NC(=O)[C@H](CCCNC(=N)N)NC(=O)[C@H](C)NC(=O)[C@H](CCCCN)NC(=O)[C@H](C)NC(=O)[C@H](Cc1ccccc1)NC(=O)[C@H](Cc1ccc(O)cc1)NC(=O)[C@H](CC(C)C)NC(=O)[C@@H](NC(=O)[C@H](Cc1ccccc1)NC(=O)[C@H](Cc1ccccc1)NC(=O)[C@H](CO)NC(=O)[C@H](C)NC(C)=O)C(C)C)C(=O)N[C@@H](CCCCN)C(N)=O [EBA175_001B] (Ac-ASFFVLYFAKARNEYDIK-NH2)
IC50 (HLA-DRB1*0701): 421 nM
IC50 (HLA-DRB1*1301): 2240 nM
IC50 (HLA-DRB1*0101): 678 nM
IC50 (HLA-DRB1*1501): 265 nM
IC50 (HLA-DRB1*0801): 9880 nM
IC50 (HLA-DRB1*1101): 520 nM
IC50 (HLA-DRB1*0401): 2270 nM

CC[C@H](C)[C@H](NC(=O)[C@H](CCCNC(=N)N)NC(=O)[C@H](CO)NC(=O)[C@@H](NC(=O)[C@H](CCCNC(=N)N)NC(=O)[C@@H](NC(=O)[C@H](C)NC(=O)[C@H](CC(N)=O)NC(=O)[C@@H](NC(=O)[C@@H]1CCCN1C(=O)[C@@H](NC(=O)[C@H](Cc1ccc(O)cc1)NC(=O)[C@H](CCCCN)NC(=O)[C@H](CC(N)=O)NC(=O)[C@H](CCC(N)=O)NC(=O)[C@H](CCCCN)NC(C)=O)C(C)C)[C@@H](C)CC)C(C)C)C(C)C)C(=O)N[C@@H](CC(C)C)C(=O)N[C@@H](CO)C(=O)N[C@@H](Cc1ccccc1)C(=O)N[C@@H](CC(C)C)C(=O)N[C@@H](CC(=O)O)C(=O)N[C@@H](CO)C(N)=O [EBA175_004] (Ac-KQNKYVPINAVRVSRILSFLDS-NH2)
IC50 (HLA-DRB1*0701): 18 nM
IC50 (HLA-DRB1*1301): 1360 nM
IC50 (HLA-DRB1*0101): 4 nM
IC50 (HLA-DRB1*1501): 2070 nM
IC50 (HLA-DRB1*0801): 6120 nM
IC50 (HLA-DRB1*1101): 396 nM
IC50 (HLA-DRB1*0401): 18200 nM
